Reference: paper PMC8225045, “Chemical Synthesis and Structure-Activity Relationship Study Yield Desotamide a Analogues with Improved Antibacterial Activity” (Marine Drugs, 2021)
In brackets after ≈: the same amount, converted by molar mass. Non-standard residues stand in square brackets, D forms with d. Residues, ends and D or L forms follow the SMILES beside them.

Tests used:
[1] = test system: Micrococcus luteus ML01; assay: microbe, parasite or virus in culture; conditions: ML01
Experimental: (§1) All the synthesized cyclopeptides (7–19) and the desotamide A (1) isolated from S. scopuliridis SCSIO ZJ46 were evaluated for antibacterial activities against a series of Gram-positive pathogens including […] Staphylococcus aureus ATCC29213, Bacillus subtilis BS01, Micrococcus luteus ML01, Enterococcus faecalis ATCC29212; 3 drug-resistant poultry pathogens Staphylococcus simulans LJH13, Enterococcus gallinarum LJH11, Staphylococcus haemolyticus LJH9; 4 clinical methicillin-resistant Staphylococcus aureus (MRSA) shhs-E1, MRSA 16339, MRSA 745524, MRSA 16162. Their antibacterial activities against the […] pathogens Escherichia coli ATCC 13,124 and clinical drug-resistant Klebsiella pneumonia 15580 were also assayed.
(§2) Ampicillin, vancomycin and polymyxin were used as control. The maximum test concentrations for all the compounds were 128 μg/mL.

[2] = test system: Enterococcus gallinarum LJH11; assay: microbe, parasite or virus in culture
Experimental: as §1, §2

[3] = test system: Staphylococcus aureus ATCC 29213; assay: microbe, parasite or virus in culture; conditions: ATCC 29213
Experimental: as §1, §2

[4] = test system: MRSA 745524; assay: microbe, parasite or virus in culture; conditions: 745524
Experimental: as §1, §2

[5] = test system: MRSA 16162; assay: microbe, parasite or virus in culture; conditions: 16162
Experimental: as §1, §2

[6] = test system: Bacillus subtilis BS01; assay: microbe, parasite or virus in culture; conditions: BS01
Experimental: as §1, §2

[7] = test system: Staphylococcus simulans LJH13; assay: microbe, parasite or virus in culture
Experimental: as §1, §2

[8] = test system: Enterococcus faecalis ATCC 29212; assay: microbe, parasite or virus in culture; conditions: ATCC 29212
Experimental: as §1, §2

[9] = test system: Staphylococcus haemolyticus LJH9; assay: microbe, parasite or virus in culture
Experimental: as §1, §2

[10] = test system: MRSA 16339; assay: microbe, parasite or virus in culture; conditions: 16339
Experimental: as §1, §2

[11] = test system: methicillin-resistant Staphylococcus aureus (MRSA) shhsE1; assay: microbe, parasite or virus in culture; conditions: methicillin-resistant shhsE1
Experimental: as §1, §2

[12] = test system: Klebsiella pneumoniae 15580; conditions: 15580
Experimental: as §1, §2

[13] = test system: E. coli ATCC 13124; conditions: ATCC 13124
Experimental: as §1, §2

[14] = test system: Gram-positive pathogens
Experimental: as §1, §2

[15] = test system: Gram-negative pathogens; conditions: weak activity; summary of Table 1
Experimental: as §1, §2

[16] = test system: Staphylococcus aureus; set-up: method as in PMID 25229313; conditions: previous report; cited from earlier work
[17] = no notable antibacterial activities; cited from earlier work
Excerpt: Comparison of the naturally produced desotamides, a preliminary SAR of this class of compounds has been defined.

Compound: CC[C@H](C)[C@@H]1NC(=O)[C@H](CC(N)=O)NC(=O)[C@@H](CCCCN)NC(=O)[C@H](Cc2c[nH]c3ccccc23)NC(=O)[C@H](CC(C)C)NC(=O)[C@@H](CC(C)C)NC1=O [Compound 13, Desotamide A4] (cyclo(I[dL]LW[dK]N))
- MIC [1]: 8 µg/mL (≈ 10.4 µM)
- MIC [2]: 64 µg/mL (≈ 83.3 µM)
- MIC [3]: 16 µg/mL (≈ 20.8 µM)
- MIC [4]: 16 µg/mL (≈ 20.8 µM)
- MIC [5]: 16 µg/mL (≈ 20.8 µM)
- MIC [6]: 8 µg/mL (≈ 10.4 µM)
- MIC [7]: 8 µg/mL (≈ 10.4 µM)
- MIC [8]: 32 µg/mL (≈ 41.7 µM)
- MIC [9]: 32 µg/mL (≈ 41.7 µM)
- MIC [10]: 16 µg/mL (≈ 20.8 µM)
- MIC [11]: 16 µg/mL (≈ 20.8 µM)
- MIC [12]: >128 µg/mL
- MIC [13]: 64 µg/mL (≈ 83.3 µM)
- MIC values against Gram-positive pathogens (summary over the panel) [14]: 8 to 32 µg/mL
- fold increase of antibacterial activities compared to desotamide A (1) ([14]; entire test panel of Gram-positive bacteria): 2–4 fold
- Gram positive antibacterial activity for desotamides (in words) ([14]; summary, Figure 2): 2–4-Fold more active than 1
- MIC against the Gram-negative pathogens tested (summary) [15]: 64 to 128 µg/mL

Compound: wollamide A [Compound 6]
- antibacterial activity against Staphylococcus aureus (in words) [16]: no antibacterial

Compound: desotamide G [Compound 5]
- MIC, antibacterial activities [17]: > 113 µg/mL
